Data from patent US20260297070A1, “CYCLIC [COMPOUND LEFT OUT] WRN INHIBITORS” (Nimbus Wadjet, Inc., priority 2023, published 2026).

Each compound was assayed against T1, human Werner helicase (WRN-BV08, Uniprot Q14191, amino acids 517-1235 with L1074F point mutation) (Homo sapiens, UniProt Q14191, L1074F) (assay: WRN (BV08) ADP-Glo Assay). Conditions: 0.15 nM WRN, 5 μM ATP, 0.1 nM DNA duplex, 15 min preincubation, 60 min at 25° C., pH 7.5, 1% DMSO; read-out: ADP-Glo_hWRN_IC50.
T1 construct: Uniprot Q14191, amino acids 517-1235 with L1074F point mutation; TEV-cleavable 8×His (C, cleaved yes); made in house; host or cells: Sf9 insect cells (baculovirus)
T1 sequence (Q14191 with tags, fused parts or gaps L1074F limits assumed): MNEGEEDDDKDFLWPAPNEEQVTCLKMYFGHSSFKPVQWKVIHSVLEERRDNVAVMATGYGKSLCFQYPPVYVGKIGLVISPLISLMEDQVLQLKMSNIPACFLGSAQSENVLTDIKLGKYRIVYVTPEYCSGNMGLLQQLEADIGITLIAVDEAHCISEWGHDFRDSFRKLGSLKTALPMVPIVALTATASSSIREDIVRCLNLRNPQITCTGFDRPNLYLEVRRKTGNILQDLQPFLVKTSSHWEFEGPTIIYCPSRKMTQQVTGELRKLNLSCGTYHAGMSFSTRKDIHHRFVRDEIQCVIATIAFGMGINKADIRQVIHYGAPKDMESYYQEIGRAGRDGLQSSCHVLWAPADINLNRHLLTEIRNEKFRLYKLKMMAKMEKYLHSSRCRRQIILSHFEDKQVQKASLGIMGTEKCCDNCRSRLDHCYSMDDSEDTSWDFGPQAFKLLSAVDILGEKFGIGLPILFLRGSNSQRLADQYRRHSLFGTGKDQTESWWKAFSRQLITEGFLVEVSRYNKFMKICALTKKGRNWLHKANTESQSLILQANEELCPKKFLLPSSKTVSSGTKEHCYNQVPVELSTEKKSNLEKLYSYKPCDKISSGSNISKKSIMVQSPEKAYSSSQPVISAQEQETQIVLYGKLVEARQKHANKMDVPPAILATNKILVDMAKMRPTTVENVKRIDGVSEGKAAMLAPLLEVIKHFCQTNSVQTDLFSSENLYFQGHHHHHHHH
Format: biochemical
Summary of the method: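 WRN 0.15 nM + cpd, 15 min 25 °C; add 5 μM ATP / 0.1 nM annealed DNA duplex; 60 min 25 °C; ADP-Glo stop, RLU. Buffer 20 mM Bicine pH 7.5, 1 mM MgCl2, 10 mM KCl, 1 mM TCEP. IC50, 4-parameter fit.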
With `O=C(C1CC(c2ccccc2)C1)N(Cc1ccncc1)C1C=CS(=O)(=O)C1` (stereo not drawn) [I-570, N-(1,1-dioxo-2,3-dihydro-1lambda6-thiophen-3-yl)-3-phenyl-N-[(pyridin-4-yl)methyl]cyclobutane-1-carboxamide] the IC50 was greater than 50 µM.
Work on `O=C(CN1CCC(c2ccccc2)CC1)N(Cc1ccncc1)C1C=CS(=O)(=O)C1` (stereo not drawn) [I-571, N-(1,1-dioxo-2,3-dihydro-1lambda6-thiophen-3-yl)-2-(4-phenylpiperidin-1-yl)-N-[(pyridin-4-yl)methyl]acetamide] yielded an IC50 greater than 50 µM.
`O=C(CN1CCC(C(F)(F)F)CC1)N(Cc1ccncc1)C1C=CS(=O)(=O)C1` (stereo not drawn) [I-572, N-(1,1-dioxo-2,3-dihydro-1lambda6-thiophen-3-yl)-N-[(pyridin-4-yl)methyl]-2-[4-(trifluoromethyl)piperidin-1-yl]acetamide] was tested, and the IC50 was greater than 50 µM.
`COc1cc(CN(C(=O)Cc2ccc(-c3csc(C)n3)cc2F)C2C=CS(=O)(=O)C2)ccn1` (stereo not drawn) [I-573, N-(1,1-dioxo-2,3-dihydro-1lambda6-thiophen-3-yl)-2-[2-fluoro-4-(2-methyl-1,3-thiazol-4-yl)phenyl]-N-[(2-methoxypyridin-4-yl)methyl]acetamide] was tested, and the IC50 was greater than 50 µM.
In the case of `CNC(=O)CC(C(=O)N(Cc1ccnc(OC)c1)C1C=CS(=O)(=O)C1)c1ccc(-c2ccc(F)cc2)cc1` (stereo not drawn) [I-574, N-(1,1-dioxo-2,3-dihydro-1lambda6-thiophen-3-yl)-2-{4′-fluoro-[1,1′-biphenyl]-4-yl}-N-[(2-methoxypyridin-4-yl)methyl]-N′-methylbutanediamide], the IC50 is reported as greater than 50 µM.
With `O=C(C1CC(Cc2ccccc2)=NO1)N(Cc1ccncc1)C1C=CS(=O)(=O)C1` (stereo not drawn) [I-579, 3-benzyl-N-(1,1-dioxo-2,3-dihydro-1lambda6-thiophen-3-yl)-N-[(pyridin-4-yl)methyl]-4,5-dihydro-1,2-oxazole-5-carboxamide] the IC50 was greater than 50 µM.
For `O=C(Cc1nc(C2CC2)cs1)N(Cc1ccncc1)C1C=CS(=O)(=O)C1` (stereo not drawn) [I-580, 2-(4-cyclopropyl-1,3-thiazol-2-yl)-N-(1,1-dioxo-2,3-dihydro-1lambda6-thiophen-3-yl)-N-[(pyridin-4-yl)methyl]acetamide], the IC50 was greater than 50 µM.
With `O=C(N(Cc1ccncc1)C1C=CS(=O)(=O)C1)C(F)(F)n1cc(-c2ccccc2)nn1` (stereo not drawn) [I-581, N-(1,1-dioxo-2,3-dihydro-1lambda6-thiophen-3-yl)-2,2-difluoro-2-(4-phenyl-1H-1,2,3-triazol-1-yl)-N-[(pyridin-4-yl)methyl]acetamide] the IC50 was greater than 50 µM.
For `O=C(Cc1cnn(C2CC2)c1)N(Cc1ccncc1)C1C=CS(=O)(=O)C1` (stereo not drawn) [I-582, 2-(1-cyclopropyl-1H-pyrazol-4-yl)-N-(1,1-dioxo-2,3-dihydro-1lambda6-thiophen-3-yl)-N-[(pyridin-4-yl)methyl]acetamide], the IC50 was greater than 50 µM.
Compound `O=C([C@H]1[C@@H]2CCC[C@@H]21)N(Cc1ccncc1)C1C=CS(=O)(=O)C1` (stereo partly drawn) [I-583, (1R,5S,6R)-N-(1,1-dioxo-2,3-dihydro-1lambda6-thiophen-3-yl)-N-[(pyridin-4-yl)methyl]bicyclo[3.1.0]hexane-6-carboxamide] has an IC50 greater than 50 µM.
Work on `O=C(CC1CC(c2ccccc2)C1)N(Cc1ccncc1)C1C=CS(=O)(=O)C1` (stereo not drawn) [I-584, N-(1,1-dioxo-2,3-dihydro-1lambda6-thiophen-3-yl)-2-(3-phenylcyclobutyl)-N-[(pyridin-4-yl)methyl]acetamide] yielded an IC50 greater than 50 µM.
`O=C1Nc2ccccc2C1CCC(=O)N(Cc1ccncc1)C1C=CS(=O)(=O)C1` (stereo not drawn) [I-585, N-(1,1-dioxo-2,3-dihydro-1lambda6-thiophen-3-yl)-3-(2-oxo-2,3-dihydro-1H-indol-3-yl)-N-[(pyridin-4-yl)methyl]propanamide] gave an IC50 greater than 50 µM.
Compound `O=C(N(Cc1ccncc1)C1C=CS(=O)(=O)C1)C12CC(c3cccc(C(F)(F)F)c3)(C1)C2F` (stereo not drawn) [I-586, N-(1,1-dioxo-2,3-dihydro-1lambda6-thiophen-3-yl)-2-fluoro-N-[(pyridin-4-yl)methyl]-3-[3-(trifluoromethyl)phenyl]bicyclo[1.1.1]pentane-1-carboxamide] has an IC50 greater than 50 µM.
`C[Si](C)(C)c1ccc(CC(=O)N(Cc2ccncc2)C2C=CS(=O)(=O)C2)cc1` (stereo not drawn) [I-587, N-(1,1-dioxo-2,3-dihydro-1lambda6-thiophen-3-yl)-N-[(pyridin-4-yl)methyl]-2-[4-(trimethylsilyl)phenyl]acetamide] gave an IC50 of 10 to 50 µM.
`COc1cc(CN(C(=O)Cc2ccc(OC3CC3)cc2)C2C=CS(=O)(=O)C2)ccn1` (stereo not drawn) [I-588, 2-(4-cyclopropoxyphenyl)-N-(1,1-dioxo-2,3-dihydro-1lambda6-thiophen-3-yl)-N-[(2-methoxypyridin-4-yl)methyl]acetamide] was tested, and the IC50 was 10 to 50 µM.
`O=C(Cn1cc2cc(C(F)(F)F)ccc2n1)N(Cc1ccncc1)C1C=CS(=O)(=O)C1` (stereo not drawn) [I-589, N-(1,1-dioxo-2,3-dihydro-1lambda6-thiophen-3-yl)-N-[(pyridin-4-yl)methyl]-2-[5-(trifluoromethyl)-2H-indazol-2-yl]acetamide] showed an IC50 of 0.5 to 5 µM.
`O=C(Cn1ncc2cc(C(F)(F)F)ccc21)N(Cc1ccncc1)C1C=CS(=O)(=O)C1` (stereo not drawn) [I-590, N-(1,1-dioxo-2,3-dihydro-1lambda6-thiophen-3-yl)-N-[(pyridin-4-yl)methyl]-2-[5-(trifluoromethyl)-1H-indazol-1-yl]acetamide] showed an IC50 of 5 to 10 µM.
In the case of `COc1cc(CN(C(=O)Cc2ccc(C3CC(F)C3)cc2F)[C@@H]2C=CS(=O)(=O)C2)ccn1` (stereo partly drawn) [I-591, N-[(3R)-1,1-dioxo-2,3-dihydro-1lambda6-thiophen-3-yl]-2-[2-fluoro-4-(3-fluorocyclobutyl)phenyl]-N-[(2-methoxypyridin-4-yl)methyl]acetamide], the IC50 is reported as 0.5 to 5 µM.
Work on `O=C(Cn1cc2ccc(C(F)F)cc2n1)N(Cc1ccncc1)C1C=CS(=O)(=O)C1` (stereo not drawn) [I-592, 2-[6-(difluoromethyl)-2H-indazol-2-yl]-N-(1,1-dioxo-2,3-dihydro-1lambda6-thiophen-3-yl)-N-[(pyridin-4-yl)methyl]acetamide] yielded an IC50 of 10 to 50 µM.
`O=C(Cn1ncc2ccc(C(F)F)cc21)N(Cc1ccncc1)C1C=CS(=O)(=O)C1` (stereo not drawn) [I-593, 2-[6-(difluoromethyl)-1H-indazol-1-yl]-N-(1,1-dioxo-2,3-dihydro-1lambda6-thiophen-3-yl)-N-[(pyridin-4-yl)methyl]acetamide] showed an IC50 greater than 50 µM.
With `CN(C)C(=O)C(C(=O)N(Cc1ccnc(C(C)(C)O)c1)C1C=CS(=O)(=O)C1)n1cc(-c2ccccc2)cn1` (stereo not drawn) [I-594, N′-(1,1-dioxo-2,3-dihydro-1lambda6-thiophen-3-yl)-N′-{[2-(2-hydroxypropan-2-yl)pyridin-4-yl]methyl}-N,N-dimethyl-2-(4-phenyl-1H-pyrazol-1-yl)propanediamide] the IC50 was 0.5 to 5 µM.
Compound `COc1cc(CN(C(=O)Cn2ncc(-c3ccccc3)c2C)[C@@H]2C=CS(=O)(=O)C2)ccn1` [I-595, N-[(3R)-1,1-dioxo-2,3-dihydro-1lambda6-thiophen-3-yl]-N-[(2-methoxypyridin-4-yl)methyl]-2-(5-methyl-4-phenyl-1H-pyrazol-1-yl)acetamide] has an IC50 of 0.5 to 5 µM.
Compound `COc1cc(CN(C(=O)Cn2cc(-c3ccccc3)c(C)n2)[C@@H]2C=CS(=O)(=O)C2)ccn1` [I-596, N-[(3R)-1,1-dioxo-2,3-dihydro-1lambda6-thiophen-3-yl]-N-[(2-methoxypyridin-4-yl)methyl]-2-(3-methyl-4-phenyl-1H-pyrazol-1-yl)acetamide] has an IC50 of 10 to 50 µM.
Work on `COc1cc(CN(C(=O)Cn2cnc(-c3ccc(F)cc3)c2)[C@@H]2C=CS(=O)(=O)C2)ccn1` [I-597, N-[(3R)-1,1-dioxo-2,3-dihydro-1lambda6-thiophen-3-yl]-2-[4-(4-fluorophenyl)-1H-imidazol-1-yl]-N-[(2-methoxypyridin-4-yl)methyl]acetamide] yielded an IC50 greater than 50 µM.
For `COc1cc(CN(C(=O)Cn2cc(-c3ccc(F)c(F)c3)cn2)[C@@H]2C=CS(=O)(=O)C2)ccn1` [I-598, 2-[4-(3,4-difluorophenyl)-1H-pyrazol-1-yl]-N-[(3R)-1,1-dioxo-2,3-dihydro-1lambda6-thiophen-3-yl]-N-[(2-methoxypyridin-4-yl)methyl]acetamide], the IC50 was less than 0.5 µM.
For `O=C(Cn1cc(-c2ccc(F)c(F)c2)cn1)N(Cc1nc(C2CC2)cs1)C1C=CS(=O)(=O)C1` (stereo not drawn) [I-599, N-[(4-cyclopropyl-1,3-thiazol-2-yl)methyl]-2-[4-(3,4-difluorophenyl)-1H-pyrazol-1-yl]-N-(1,1-dioxo-2,3-dihydro-1lambda6-thiophen-3-yl)acetamide], the IC50 was less than 0.5 µM.
`COc1cc(CN(C(=O)Cc2ccc(S(F)(F)(F)(F)F)cc2)C2C=CS(=O)(=O)C2)ncn1` (stereo not drawn) [I-600, N-(1,1-dioxo-2,3-dihydro-1lambda6-thiophen-3-yl)-N-[(6-methoxypyrimidin-4-yl)methyl]-2-[4-(pentafluoro-lambda6-sulfanyl)phenyl]acetamide] was tested, and the IC50 was 0.5 to 5 µM.
With `COc1cc(CN(C(=O)C(OCCO)c2ccc(-c3ccc(F)c(F)c3)cc2F)[C@@H]2C=CS(=O)(=O)C2)ccn1` (stereo partly drawn) [I-603, N-[(3R)-1,1-dioxo-2,3-dihydro-1lambda6-thiophen-3-yl]-2-(2-hydroxyethoxy)-N-[(2-methoxypyridin-4-yl)methyl]-2-{3,3′,4′-trifluoro-[1,1′-biphenyl]-4-yl}acetamide] the IC50 was less than 0.5 µM.
In the case of `O=C(Cc1ccc(S(F)(F)(F)(F)F)cc1)N(Cc1ccnc(OC(F)F)c1)C1C=CS(=O)(=O)C1` (stereo not drawn) [I-605, N-{[2-(difluoromethoxy)pyridin-4-yl]methyl}-N-(1,1-dioxo-2,3-dihydro-1lambda6-thiophen-3-yl)-2-[4-(pentafluoro-lambda6-sulfanyl)phenyl]acetamide], the IC50 is reported as 0.5 to 5 µM.
`O=C(Cc1ccc(S(F)(F)(F)(F)F)cc1)N(CC1CC1)C1C=CS(=O)(=O)C1` (stereo not drawn) [I-608, N-(cyclopropylmethyl)-N-(1,1-dioxo-2,3-dihydro-1lambda6-thiophen-3-yl)-2-[4-(pentafluoro-lambda6-sulfanyl)phenyl]acetamide] gave an IC50 of 10 to 50 µM.
